In patent US7750148B2, “Intermediate compound for the production of β-lactamase-resistant cephalosporin ester compounds and salts thereof” (Zhejiang Yongning Pharmaceutical Factory, priority 2003, dated 2010):
Like-named read-outs stand apart in the source and are kept apart here.

How the values were obtained:
[1] = system: Staphylococcus aureus 26003; test: In vitro antibacterial activity (MIC, agar double dilution); assay type: cell-based; details: Staphylococcus aureus, 26003, 24 h, read-out: MIC of the drug to bacteria
From the text: (§1) tested samples YR-1, YR-2 were the ones prepared in example 1 and example 5 respectively, control samples were cefetamet sodium (CTM), cefuroxime sodium (CRX), cefetamet sodium+sulbactam sodium (CTM+SBT) (molar ratio 1:1), cefuroxime+sulbactam sodium (CRX+SBT) (molar ratio 1:1). All control samples (have been sold on the market) were supplied by Zhejiang Yongning pharmaceutical factory.
(§2) Staphylococcus aureus 26003, Diplococcus lanceolatus 31002, E. coli 44102, Shigella sonnet 51081, Shigella bogdii 51313, Shigella flexneri 51573, Proteus mirabilis 49005, Bacillus proteus 49085, Proteus morganii 49086, Pseudomonas aeruginosa 10124, Bacillus pneumoniae 46101, Salmonella enteritidis 50041, Salmonella typhi 50097, Citrobacter 48017, Candida ciferii 41002 were supplied by Shanghai Hygienic and Antiepidemic Station.
(§3) Mueller-Hinton Agar (M.H) culture medium, batch number 20040528 (Shanghai Reagent Supply Research Center, China Diarrhea Disease Control).
(§4) Adopted agar double dilution, inoculated using multipoint inoculator, inoculated 10^5CFU/ML each point, cultured for 24 hours at 37° C., observed and recorded the results, set the least concentration of the antibacterial drug that can inhibit bacteria growth as the minimum inhibitory concentration (MIC).

[2] = system: Salmonella typhi 50097; test: as above; assay type: cell-based; details: Salmonella enterica, 10^5CFU/ML each point, 24 hours at 37° C., read-out: MIC of the drug to bacteria
From the text: as §1, §2, §3, §4

[3] = system: Shigella sonnet 51081; test: as above; assay type: cell-based; details: Shigella, 51081, 24 h, read-out: MIC of the drug to bacteria
From the text: as §1, §2, §3, §4

[4] = system: Proteus mirabilis 49005; test: as above; assay type: cell-based; details: Proteus mirabilis, 49005, 24 h, read-out: MIC of the drug to bacteria
From the text: as §1, §2, §3, §4

[5] = system: Shigella flexneri 51573; test: as above; assay type: cell-based; details: Shigella flexneri, 51573, 24 h, read-out: MIC of the drug to bacteria
From the text: as §1, §2, §3, §4

[6] = system: Salmonella enteritidis 50041; test: as above; assay type: cell-based; details: Salmonella enterica, read-out: MIC of the drug to bacteria
From the text: as §1, §2, §3, §4

[7] = system: Candida ciferii 41002; test: as above; assay type: cell-based; details: read-out: MIC of the drug to bacteria
From the text: as §1, §2, §3, §4

[8] = system: E. coli 44102; test: as above; assay type: cell-based; details: read-out: MIC of the drug to bacteria
From the text: as §1, §2, §3, §4

[9] = system: Bacillus pneumoniae 46101; test: as above; assay type: cell-based; details: read-out: MIC of the drug to bacteria
From the text: as §1, §2, §3, §4

[10] = system: Pseudomonas aeruginosa 10124; test: as above; assay type: cell-based; details: read-out: MIC of the drug to bacteria
From the text: as §1, §2, §3, §4

[11] = system: Diplococcus lanceolatus 31002; test: as above; assay type: cell-based; details: read-out: MIC of the drug to bacteria
From the text: as §1, §2, §3, §4

[12] = system: Citrobacter 48017; test: as above; assay type: cell-based; details: Citrobacter, 48017, 24 h, read-out: MIC of the drug to bacteria
From the text: as §1, §2, §3, §4

[13] = system: Shigella bogdii 51313; test: as above; assay type: cell-based; details: Shigella, 51313, 24 h, read-out: MIC of the drug to bacteria
From the text: as §1, §2, §3, §4

[14] = system: Bacillus proteus 49085; test: as above; assay type: cell-based; details: read-out: MIC of the drug to bacteria
From the text: as §1, §2, §3, §4

[15] = system: Bacillus proteus 49085, Proteus morganii 49086; test: Ex vivo antibacterial activity experiment after mouse is administered, conclusions (strains not separated); assay type: in vivo; details: mice, intravenous injection 500 mg/kg
From the text: the sources of tested samples (YR-1, YR-2) and control samples (CTM, CRX, CTM+SBT 1:1 and CRX+SBT 1:1) are the same as above. Bacillus proteus 49085, Proteus morganii 49086, inoculated 10^5CFU/ML each dish. Mueller-Hinton Agar (M.H) culture medium, batch number 000707 (Shanghai Reagent Supply Research Center, China Diarrhea Disease Control). Strain: Kunming mice; source: Animal Facility of Shanghai Institute of Pharmaceutical Industry; certificate number: Hudonghezhengzi No. 107; animal numbers: 120; Sex: same number of male and female mice; Body weight: 18-21 g; fast time: 16 hours. Group 1: CTM, CRX, CTM+SBT 1:1, CRX+SBT 1:1 were given at a dosage of 500 mg/kg intravenously, collecting blood at 10 minutes, 30 minutes, 1 hour, 2 hours, 4 hours, 8 hours after administration. Group 2: […] Kunming mice were randomly divided into several groups according to body weight of empty stomach and sex. Collecting blood of three mice at different time point, anticoagulated with heparin, centrifugated and separated plasma, quantitative spotting, semi-quantitated antibacterial activity according to the size of bacterial inhibition ring.

[16] = system: Diplococcus lanceolatus 0031; test: In vitro antibacterial activity (MIC, agar double dilution); assay type: cell-based; details: read-out: MIC of the drug to bacteria
From the text: as §1
Diplococcus lanceolatus 0031 was supplied by Shanghai First People's Hospital.
as §3, §4

[17] = system: Bacillus aerogenes 45102; test: as above; assay type: cell-based; details: Bacillus, 45102, 24 h, read-out: MIC of the drug to bacteria
From the text: as §1
(§5) Staphylococcus epidermidis 26069 and Bacillus aerogenes 45102 were supplied by Beijing Drug & Biology Product Appraisal Bureau.
as §3, §4

[18] = system: Staphylococcus epidermidis 26069; test: as above; assay type: cell-based; details: read-out: MIC of the drug to bacteria
From the text: as §1, §5, §3, §4

[19] = system: Proteus morganii 49086; test: as above; assay type: cell-based
From the text: as §1, §2, §3, §4

[20] = system: type II, III, IV, V β-lactamase; details: at a concentration of 2 μg/ml; cited from earlier work

CO/N=C(\C(=O)N[C@@H]1C(=O)N2C(C(=O)O)=C(COC(N)=O)CS[C@H]12)c1ccco1 [CRX, cefuroxime sodium, reference compound]
MIC [1]: 1.56 µg/mL
MIC [2]: 3.13 µg/mL
MIC [3]: 0.78 µg/mL
MIC [4]: 1.56 µg/mL
MIC [5]: 1.56 µg/mL
MIC ([6]; Salmonella enteritidis 50041, 10^5CFU/ML each point, 24 hours at 37° C.): 6.25 µg/mL
MIC ([7]; Candida ciferii 41002, 10^5CFU/ML each point, 24 hours at 37° C.): 25 µg/mL
MIC ([8]; Escherichia coli, E. coli 44102, 10^5CFU/ML each point, 24 hours at 37° C.): 6.25 µg/mL
MIC ([9]; Klebsiella pneumoniae, Bacillus pneumoniae 46101, 10^5CFU/ML each point, 24 hours at 37° C.): 25 µg/mL
MIC ([10]; Pseudomonas aeruginosa 10124, 10^5CFU/ML each point, 24 hours at 37° C.): 100 µg/mL
MIC ([11]; Diplococcus lanceolatus 31002, 10^5CFU/ML each point, 24 hours at 37° C.): 25 µg/mL
MIC [12]: 1.56 µg/mL
MIC [13]: 1.56 µg/mL
MIC ([14]; Bacillus proteus 49085, 10^5CFU/ML each point, 24 hours at 37° C.): 0.78 µg/mL
antibacterial activities in blood 8 hours after administration [15]: can not be detected
MIC ([16]; Diplococcus lanceolatus 0031, 10^5CFU/ML each point, 24 hours at 37° C.): 0.78 µg/mL
MIC [17]: 3.13 µg/mL
MIC ([18]; Staphylococcus epidermidis 26069, 10^5CFU/ML each point, 24 hours at 37° C.): 0.39 µg/mL
MIC ([19]; Morganella morganii, Proteus morganii 49086, 10^5CFU/ML each point, 24 hours at 37° C., read-out: MIC of the drug to bacteria): 100 µg/mL

CO/N=C(\C(=O)N[C@@H]1C(=O)N2C(C(=O)O)=C(C)CS[C@H]12)c1csc(N)n1 [CTM, cefetamet sodium, reference compound]
MIC [1]: 100 µg/mL
MIC [2]: 0.78 µg/mL
MIC [3]: 0.39 µg/mL
MIC [4]: 0.195 µg/mL
MIC [5]: 0.78 µg/mL
MIC ([6]; ENTERITIDIS, 24 h): 0.78 µg/mL
MIC ([7]; Candida, 41002, 24 h): 0.78 µg/mL
MIC ([8]; Escherichia coli, 44102, 24 h): 0.78 µg/mL
MIC ([9]; Klebsiella pneumoniae, 46101, 24 h): 0.78 µg/mL
MIC ([10]; Pseudomonas aeruginosa, 10124, 24 h): 100 µg/mL
MIC ([11]; 24 h): > 100 µg/mL
MIC [12]: 1.56 µg/mL
MIC [13]: 0.39 µg/mL
MIC ([14]; Bacillus, 49085, 24 h): 0.195 µg/mL
antibacterial activities in blood 8 hours after administration [15]: can not be detected
MIC ([16]; 24 h): 25 µg/mL
MIC [17]: 0.195 µg/mL
MIC ([18]; Staphylococcus epidermidis, 26069, 24 h): 12.5 µg/mL
MIC ([19]; Morganella morganii, 49086, 24 h, read-out: MIC of the drug to bacteria): > 100 µg/mL
MIC ([19]; Morganella morganii, 49086, read-out: MIC (as restated in the conclusions)): > 100000 µg/mL

CC1(C)[C@H](C(=O)O)N2C(=O)C[C@H]2S1(=O)=O [Sulbactam]
inhibition to β-lactamase [20]: extremely strong inhibition
